Assays:
Assay in all cases: biochemical
Set-up in all cases: KINOMEscan active-site competition binding, percent of control (100 = no competition)
Settings in all cases: competition binding, percent control
[1] = molecular target: T1, ABL1(Q252H)-phosphorylated (Homo sapiens, UniProt P00519, Q252H)
T1 construct: phosphorylated
Description: (§1) Given the potential for the use of LIMK inhibitors as cancer chemotherapeutics, a high-throughput drug discovery and medicinal chemistry program was undertaken. Details of the screening methodology and description of initial hit matter were described in [38]. […] Details of their chemical synthesis are described in Charles et al.. […] These and additional physiochemical parameters are in Supplemental Table 5. […] Kinases inhibited >25% to 50% have yellow circles, 51% to 75% have orange circles, and >76% have red circles. In each case, the size of the circle is proportional to percentage inhibition. LIMK1 and LIMK2 positions are indicated in blue. Illustration reproduced courtesy of Cell Signaling Technology, Inc. (www.cellsignal.com). B. CRT0105950 structure and kinome selectivity mapping as described above. C.

ASK1 = molecular target: T2, ASK1 (Homo sapiens, UniProt Q99683)
T2 construct: gene MAP3K5
T2 sequence (Q99683 whole entry): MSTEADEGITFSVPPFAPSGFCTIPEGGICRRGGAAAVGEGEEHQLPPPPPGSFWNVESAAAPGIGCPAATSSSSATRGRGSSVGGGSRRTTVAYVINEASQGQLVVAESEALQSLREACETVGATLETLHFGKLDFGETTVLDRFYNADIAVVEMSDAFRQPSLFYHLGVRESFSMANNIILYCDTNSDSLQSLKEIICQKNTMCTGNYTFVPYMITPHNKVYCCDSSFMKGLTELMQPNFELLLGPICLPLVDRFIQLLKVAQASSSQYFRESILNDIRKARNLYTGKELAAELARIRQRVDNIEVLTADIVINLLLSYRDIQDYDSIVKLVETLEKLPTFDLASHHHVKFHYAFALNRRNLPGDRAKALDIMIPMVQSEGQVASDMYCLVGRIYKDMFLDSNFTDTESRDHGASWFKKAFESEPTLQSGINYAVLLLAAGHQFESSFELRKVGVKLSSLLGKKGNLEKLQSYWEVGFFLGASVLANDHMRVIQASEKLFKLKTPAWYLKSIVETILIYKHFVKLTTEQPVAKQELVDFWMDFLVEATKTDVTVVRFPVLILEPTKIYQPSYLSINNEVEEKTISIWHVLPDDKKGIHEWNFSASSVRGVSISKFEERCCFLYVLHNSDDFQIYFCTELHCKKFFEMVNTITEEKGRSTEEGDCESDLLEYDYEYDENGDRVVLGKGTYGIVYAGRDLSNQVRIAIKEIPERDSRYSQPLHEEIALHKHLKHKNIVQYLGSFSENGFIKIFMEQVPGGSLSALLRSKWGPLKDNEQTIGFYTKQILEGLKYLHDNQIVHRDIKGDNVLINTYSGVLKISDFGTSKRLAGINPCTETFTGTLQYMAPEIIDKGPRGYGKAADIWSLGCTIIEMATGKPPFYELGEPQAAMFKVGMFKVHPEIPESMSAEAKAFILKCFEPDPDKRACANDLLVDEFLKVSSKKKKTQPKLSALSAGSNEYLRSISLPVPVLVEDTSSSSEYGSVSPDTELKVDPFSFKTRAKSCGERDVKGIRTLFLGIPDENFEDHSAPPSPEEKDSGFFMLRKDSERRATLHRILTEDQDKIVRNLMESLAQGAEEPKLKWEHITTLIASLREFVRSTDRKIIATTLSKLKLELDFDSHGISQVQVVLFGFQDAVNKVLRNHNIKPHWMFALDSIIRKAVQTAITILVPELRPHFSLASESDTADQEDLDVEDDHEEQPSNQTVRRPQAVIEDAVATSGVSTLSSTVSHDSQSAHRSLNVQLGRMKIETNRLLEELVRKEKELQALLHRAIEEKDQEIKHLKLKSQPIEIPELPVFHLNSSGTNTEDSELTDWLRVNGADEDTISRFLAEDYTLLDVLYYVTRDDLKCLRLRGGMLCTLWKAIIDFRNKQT
Description: as §1

BMPR1A = BMPR1A (Homo sapiens, UniProt P36894)
Description: as §1

CAMKK1 = CAMKK1 (Homo sapiens, UniProt Q8N5S9)
Description: as §1

CHEK2 = CHEK2 (Homo sapiens, UniProt O96017)
Description: as §1

CLK2 = CLK2 (Homo sapiens, UniProt P49760)
Description: as §1

EPHA3 = EPHA3 (Homo sapiens, UniProt P29320)
Chain of EPHA3 (P29320 whole entry): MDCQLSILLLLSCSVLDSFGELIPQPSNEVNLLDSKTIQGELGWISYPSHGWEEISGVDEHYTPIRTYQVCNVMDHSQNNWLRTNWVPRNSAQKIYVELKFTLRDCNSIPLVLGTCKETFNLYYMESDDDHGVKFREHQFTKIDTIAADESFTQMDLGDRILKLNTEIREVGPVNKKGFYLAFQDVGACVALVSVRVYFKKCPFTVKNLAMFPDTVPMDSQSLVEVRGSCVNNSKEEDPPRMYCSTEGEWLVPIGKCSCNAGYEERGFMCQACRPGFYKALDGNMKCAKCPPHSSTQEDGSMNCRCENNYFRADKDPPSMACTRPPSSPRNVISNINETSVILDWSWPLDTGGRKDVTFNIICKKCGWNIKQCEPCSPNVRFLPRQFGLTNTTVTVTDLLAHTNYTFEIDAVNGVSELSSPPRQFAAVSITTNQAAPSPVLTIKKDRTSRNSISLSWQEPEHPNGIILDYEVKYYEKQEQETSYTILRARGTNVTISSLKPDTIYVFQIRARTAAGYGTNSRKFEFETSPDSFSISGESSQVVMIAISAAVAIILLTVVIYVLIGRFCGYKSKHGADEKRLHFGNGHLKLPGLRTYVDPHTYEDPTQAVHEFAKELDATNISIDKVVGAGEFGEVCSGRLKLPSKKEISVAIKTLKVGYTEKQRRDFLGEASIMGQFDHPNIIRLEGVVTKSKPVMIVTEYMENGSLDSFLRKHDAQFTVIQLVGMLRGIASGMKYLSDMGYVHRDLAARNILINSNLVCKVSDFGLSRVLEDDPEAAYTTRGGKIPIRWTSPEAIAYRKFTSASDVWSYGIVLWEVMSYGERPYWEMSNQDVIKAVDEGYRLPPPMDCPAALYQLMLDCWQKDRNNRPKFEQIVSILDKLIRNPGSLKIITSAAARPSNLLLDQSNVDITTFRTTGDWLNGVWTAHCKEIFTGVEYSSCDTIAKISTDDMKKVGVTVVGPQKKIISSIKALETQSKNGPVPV
Description: as §1

[2] = molecular target: T3, JAK3(JH1domain-catalytic) (Homo sapiens, UniProt P52333)
T3 construct: JH1domain-catalytic
Description: as §1

MAP3K2 = MAP3K2 (Homo sapiens, UniProt Q9Y2U5)
Description: as §1

MST1 = molecular target: T4, MST1 (Homo sapiens, UniProt Q13043)
T4 construct: gene STK4
Description: as §1

MST2 = molecular target: T5, MST2 (Homo sapiens, UniProt Q13188)
T5 construct: gene STK3
T5 sequence (Q13188 whole entry): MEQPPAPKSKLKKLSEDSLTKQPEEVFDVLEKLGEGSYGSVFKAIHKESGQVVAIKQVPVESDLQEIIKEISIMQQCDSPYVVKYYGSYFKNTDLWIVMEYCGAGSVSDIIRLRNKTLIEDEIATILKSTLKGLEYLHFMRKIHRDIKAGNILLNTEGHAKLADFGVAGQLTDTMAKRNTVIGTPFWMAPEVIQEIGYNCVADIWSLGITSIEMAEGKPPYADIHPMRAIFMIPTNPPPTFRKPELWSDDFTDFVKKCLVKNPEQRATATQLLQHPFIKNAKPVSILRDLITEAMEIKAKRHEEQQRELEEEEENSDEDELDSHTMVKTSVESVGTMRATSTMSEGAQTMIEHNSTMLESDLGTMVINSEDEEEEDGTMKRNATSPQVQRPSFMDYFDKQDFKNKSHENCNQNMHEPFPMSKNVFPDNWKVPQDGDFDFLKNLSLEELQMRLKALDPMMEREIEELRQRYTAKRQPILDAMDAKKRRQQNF
Description: as §1

PAK1 = PAK1 (Homo sapiens, UniProt Q13153)
Description: as §1

PIK3CA(H1047L) = PIK3CA(H1047L) (Homo sapiens, UniProt P42336, H1047L)
Description: as §1

PIK3CD = PIK3CD (Homo sapiens, UniProt O00329)
Description: as §1

PIK4CB = molecular target: T6, PIK4CB (Homo sapiens, UniProt Q9UBF8)
T6 construct: gene PI4KB
Description: as §1

PKAC-beta = molecular target: T7, PKAC-beta (Homo sapiens, UniProt P22694)
T7 construct: gene PRKACB
Description: as §1

PRKG2 = PRKG2 (Homo sapiens, UniProt Q13237)
Chain of PRKG2 (Q13237 whole entry): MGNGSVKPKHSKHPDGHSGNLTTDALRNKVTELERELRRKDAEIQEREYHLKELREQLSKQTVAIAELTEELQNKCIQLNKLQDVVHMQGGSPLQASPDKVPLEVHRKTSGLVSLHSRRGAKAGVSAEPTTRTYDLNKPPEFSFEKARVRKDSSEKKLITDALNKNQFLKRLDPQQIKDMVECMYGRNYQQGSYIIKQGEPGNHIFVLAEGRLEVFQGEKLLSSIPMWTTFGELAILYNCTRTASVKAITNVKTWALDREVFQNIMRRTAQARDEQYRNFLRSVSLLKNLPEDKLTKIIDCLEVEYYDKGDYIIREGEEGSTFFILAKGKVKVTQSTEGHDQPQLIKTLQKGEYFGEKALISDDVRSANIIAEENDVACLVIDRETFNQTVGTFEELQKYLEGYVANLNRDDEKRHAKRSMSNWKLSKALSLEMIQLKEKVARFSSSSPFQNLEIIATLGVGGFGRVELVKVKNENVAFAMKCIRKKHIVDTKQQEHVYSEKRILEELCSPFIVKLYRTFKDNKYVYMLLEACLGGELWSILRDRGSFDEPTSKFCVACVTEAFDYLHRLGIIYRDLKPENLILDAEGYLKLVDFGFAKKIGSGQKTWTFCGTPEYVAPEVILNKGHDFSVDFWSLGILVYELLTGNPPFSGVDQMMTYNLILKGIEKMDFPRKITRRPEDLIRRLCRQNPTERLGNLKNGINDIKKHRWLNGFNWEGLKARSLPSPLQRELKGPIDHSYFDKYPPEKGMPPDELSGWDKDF
Description: as §1

[3] = molecular target: T8, RPS6KA5(Kin.Dom.2-C-terminal) (Homo sapiens, UniProt O75582)
T8 construct: Kin.Dom.2-C-terminal
Description: as §1

[4] = molecular target: T9, RSK4(Kin.Dom.1-N-terminal) (Homo sapiens, UniProt Q9UK32)
T9 construct: gene RPS6KA6; Kin.Dom.1-N-terminal
T9 sequence (Q9UK32 whole entry): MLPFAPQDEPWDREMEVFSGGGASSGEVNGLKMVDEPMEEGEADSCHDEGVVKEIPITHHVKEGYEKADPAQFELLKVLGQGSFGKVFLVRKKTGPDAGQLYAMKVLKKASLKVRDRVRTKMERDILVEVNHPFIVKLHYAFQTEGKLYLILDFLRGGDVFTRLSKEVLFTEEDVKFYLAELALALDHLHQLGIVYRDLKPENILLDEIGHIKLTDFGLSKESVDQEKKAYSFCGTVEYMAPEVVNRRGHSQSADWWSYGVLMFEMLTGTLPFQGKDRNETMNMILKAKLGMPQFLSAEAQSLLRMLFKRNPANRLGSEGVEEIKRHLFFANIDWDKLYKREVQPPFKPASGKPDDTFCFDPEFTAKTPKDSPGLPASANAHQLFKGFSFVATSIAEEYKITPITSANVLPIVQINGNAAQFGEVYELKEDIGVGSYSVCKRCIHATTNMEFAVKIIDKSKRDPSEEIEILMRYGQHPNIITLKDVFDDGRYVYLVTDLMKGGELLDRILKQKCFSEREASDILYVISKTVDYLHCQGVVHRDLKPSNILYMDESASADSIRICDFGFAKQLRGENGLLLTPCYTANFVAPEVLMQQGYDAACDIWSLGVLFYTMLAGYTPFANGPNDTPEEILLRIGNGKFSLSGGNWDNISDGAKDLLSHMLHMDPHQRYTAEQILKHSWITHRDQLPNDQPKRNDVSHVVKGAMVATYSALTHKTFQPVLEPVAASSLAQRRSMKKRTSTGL
Description: as §1

TAOK1 = TAOK1 (Homo sapiens, UniProt Q7L7X3)
Description: as §1

TAOK3 = TAOK3 (Homo sapiens, UniProt Q9H2K8)
Description: as §1

p38-beta = molecular target: T10, p38-beta (Homo sapiens, UniProt Q15759)
T10 construct: gene MAPK11
T10 sequence (Q15759 whole entry): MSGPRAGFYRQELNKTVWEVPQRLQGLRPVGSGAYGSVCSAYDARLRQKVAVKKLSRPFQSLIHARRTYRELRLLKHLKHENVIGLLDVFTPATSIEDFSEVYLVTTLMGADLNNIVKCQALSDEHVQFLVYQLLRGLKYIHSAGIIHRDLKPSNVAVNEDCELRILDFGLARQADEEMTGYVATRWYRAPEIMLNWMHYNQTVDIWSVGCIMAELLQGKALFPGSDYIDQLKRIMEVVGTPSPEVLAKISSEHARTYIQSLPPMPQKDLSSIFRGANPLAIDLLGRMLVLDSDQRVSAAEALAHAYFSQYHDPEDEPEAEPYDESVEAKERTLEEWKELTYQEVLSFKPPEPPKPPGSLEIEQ
Description: as §1

Row | Compound | remaining binding at 10 µM [1] | remaining binding at 10 µM (ASK1) | remaining binding at 10 µM (BMPR1A) | remaining binding at 10 µM (CAMKK1) | remaining binding at 10 µM (CHEK2) | remaining binding at 10 µM (CLK2) | remaining binding at 10 µM (EPHA3) | remaining binding at 10 µM [2] | remaining binding at 10 µM (MAP3K2) | remaining binding at 10 µM (MST1) | remaining binding at 10 µM (MST2) | remaining binding at 10 µM (PAK1) | remaining binding at 10 µM (PIK3CA(H1047L)) | remaining binding at 10 µM (PIK3CD) | remaining binding at 10 µM (PIK4CB) | remaining binding at 10 µM (PKAC-beta) | remaining binding at 10 µM (PRKG2) | remaining binding at 10 µM [3] | remaining binding at 10 µM [4] | remaining binding at 10 µM (TAOK1) | other results
1 | COc1ccc(-c2cnccc2-c2cnc(NC(=O)C(C)C)s2)c(C(F)(F)F)c1 [CRT0105446, N-{5-[3-(4-Methoxy-2-trifluoromethyl-phenyl)-pyridin-4-yl]-hiazol-2-yl}-isobutyramide] | 81% | 100% | 100% | 82% | 100% | 78% | 87% | 100% | 82% | 100% | 100% | 57% | 100% | 100% | 80% | 100% | 100% | 86% | 59% | 93% | remaining binding at 10 µM (TAOK3): 96%; remaining binding at 10 µM (p38-beta): 100%
2 | Cc1ccc(-c2cnccc2-c2cnc(Nc3ccc(O)cc3)s2)c(Cl)c1 [CRT0105950, 4-{5-[3-(2-Chloro-4-methyl-phenyl)-pyridin-4-yl]-thiazol-2-ylamino}-phenol] | 74% | 100% | 91% | 26% | 55% | 0.45% | 71% | 33% | 15% | 3.4% | 0.7% | 97% | 97% | 100% | 2.9% | 44% | 73% | 89% | 0.4% | 17% | remaining binding at 10 µM (TAOK3): 28%; remaining binding at 10 µM (p38-beta): 93%
